Results taken from US20240189449A1, “LIPID NANOPARTICLES AND POLYNUCLEOTIDES ENCODING ORNITHINE TRANSCARBAMYLASE FOR THE TREATMENT OF ORNITHINE TRANSCARBAMYLASE DEFICIENCY” (ModernaTX, Inc., priority 2021, published 2024).

Tests used:
Sprague Dawley rats [1] = test: Tolerability in rats: reporter antibody construct expression (ELISA) and liver toxicity; format: in vivo; conditions: IV
Description: To assess tolerability of the lipids of the disclosure, expression of a reporter antibody construct induced by sample formulations was assessed in rats.
Lipid nanoparticles including DSPC as a phospholipid, cholesterol as a structural lipid, Compound I as a PEG lipid, an ionizable amino lipid of Formula (II), and an mRNA encoding a reporter antibody construct were intravenously administered to Sprague Dawley rats. […] For the formulations tested, high levels of the reporter antibody were measured with minimal signs of liver toxicity (Table 15).

CD-1 mice [2] = test: hEPO expression in serum after IV lipid nanoparticles with hEPO mRNA, CD-1 mice; format: in vivo; conditions: LNP with DSPC, cholesterol, Compound I; for Mean 6 hr hEPO Concentration: serum 6 hours after injection
Description: To assess potency of expression and metabolic stability of lipids of the disclosure, hepatocyte protein expression (hEPO) was measured following administration to mice of a nanoparticle of the disclosure.
(§1) Lipid nanoparticles including DSPC as a phospholipid, cholesterol as a structural lipid, Compound I as a PEG lipid, an ionizable amino lipid of Formula (II), and an mRNA encoding hEPO were intravenously administered to CD-1 mice. The concentration of hEPO in serum was tested at 6 hours after injection.

Sprague Dawley rats [3] = test: NPI-Luciferase expression, ex vivo liver bioluminescence, Sprague Dawley rats; format: in vivo; conditions: rat, IV
Description: (§2) To further assess potency of expression and metabolic stability of lipids of the disclosure, expression of luciferase was measured following administration to rodents of a nanoparticle of the disclosure comprising an mRNA containing luciferase.
as §1, with “luciferase” for “hEPO”, “mice and Sprague Dawley rats.” for “mice.”, “level” for “concentration”, “expression” for “hEPO in serum”, “tested via bioluminescence in the liver ex vivo” for “tested”

CD-1 mice [4] = test: NPI-Luciferase expression, ex vivo liver bioluminescence, CD-1 mice; format: in vivo; conditions: mouse, IV
Description: as §2
as §1, with “luciferase” for “hEPO”, “mice and Sprague Dawley rats.” for “mice.”, “level” for “concentration”, “expression” for “hEPO in serum”, “tested via bioluminescence in the liver ex vivo” for “tested”

CD-1 mice [5] = test: Parent lipid remaining in liver at 24 h, CD-1 mice (hEPO mRNA LNPs); format: in vivo; conditions: for Approx. Percent Total Dose of Parent Lipid Remaining at 24 h: calculation assumes a 25 g mouse with a 1.5 g liver
Sprague Dawley rats [6] = test: Parent lipid remaining in liver tissue at 24 h, rats; format: in vivo; conditions: rat
cynomolgus monkeys = test: Luciferase level in livers ex vivo (ELISA), cynomolgus monkeys; conditions: IV
Description: To the assess potency of expression and metabolic stability of lipids of the disclosure in different species, the expression of an mRNA was measured following administration to non-human primates of a nanoparticle of the disclosure containing the mRNA.
as §1, with “luciferase” for “hEPO”, “cynomolgus monkeys.” for “CD-1 mice.”, “level” for “concentration”, “livers ex vivo” for “serum”, “measured via ELISA” for “tested”

Sprague Dawley rats [7] = test: hEPO expression in serum after IV lipid nanoparticles with hEPO mRNA, Sprague Dawley rats; format: in vivo; conditions: serum 6 hours after injection
Description: To further assess potency of expression and metabolic stability of lipids of the disclosure, hepatocyte protein expression (hEPO) was measured following administration to rats of a nanoparticle of the disclosure.
as §1, with “Sprague Dawley rats.” for “CD-1 mice.”

Row | SMILES | Mean Reporter Antibody Construct Concentration (Sprague Dawley rats [1]) | hEPO AUC (CD-1 mice [2]) | Mean 6 hr hEPO Concentration (CD-1 mice [2]) | Mean 6 h ex vivo Liver NPI-Luciferase Total Flux (Sprague Dawley rats [3]) | Mean 6 h ex vivo Liver NPI-Luciferase Total Flux (CD-1 mice [4]) | Parent Lipid Remaining (nmol/g liver tissue) at 24 h (CD-1 mice [5]) | Approx. Percent Total Dose of Parent Lipid Remaining at 24 h (CD-1 mice [5]) | Approx. Percent Total Dose of Parent Lipid Remaining at 24 h (Sprague Dawley rats [6]) | Mean 6 h NPI-Luciferase Concentration (cynomolgus monkeys) | Mean 6 hr hEPO Concentration (Sprague Dawley rats [7])
1 | CCCCCCCCC(CCCCCCCC)OC(=O)CCCCCCCN(CCO)CCCCCCCC(=O)OCCC(CCCC)CCCC [Compound 22, 3-Butylheptyl 8-((8-(heptadecan-9-yloxy)-8-oxooctyl)(2-hydroxyethyl)amino)octanoate] | 1113642 ng/mL | 2.03E+07 | 1264530 mIU/mL | 2227666667 photons/second | 300960000 photons/second | <0.1 nmol/g liver tissue | <0.1% | <0.1%^ | 1322 ng/g | 
2 | CCCCCC(CCCCC)CCOC(=O)CCCCCCCN(CCO)CCCCCCCC(=O)OCCC(CCCCC)CCCCC [Compound 25] | 948617 ng/mL | 1.07E+07 | 591942 mIU/mL | 4068000000 photons/second | 336800000 photons/second | 0.1 ± 0.04 nmol/g liver tissue | <0.1% | <0.1%^ |  | 
3 | CCCCCCCCC(CCCCCCCC)OC(=O)CCCCCCCN(CCCCCCCC(=O)OCCC(CCCC)CCCC)CCCNc1c(NC)c(=O)c1=O [Compound 27, 3-Butylheptyl 8-((8-(heptadecan-9-yloxy)-8-oxooctyl)(3-((2-(methylamino)-3,4-dioxocyclobut-1-en-1-yl)amino)propyl)amino)octanoate] | 833698 ng/mL | 2.10E+07 | 1316011 mIU/mL | 1215666667 photons/second | 357720000 photons/second | 27 ± 4 nmol/g liver tissue | 28% | 28% | 878 ng/g | 664431 mIU/mL
